Data as given in patent US20220282237A1, “NOVEL FUCOSE ISOMERASE AND FUCOSE PRODUCTION METHOD USING SAME” (Korea University Research and Business Foundation, priority 2019, published 2022).
Where two headings read alike, the source gives them in different places.

B1: L-fucose isomerase derived from Raoultella sp. KDH 14 strain (enzyme)
chain: MKRISLPKIGIRPVIDGRRMGVRESLEAQTMNMAKATAALISEKLRHACGAQIECVIADTCIAGMAESAACEEKFSRQNVGVTITVTPCWCYGSETIDMDPLRPKAIWGFNGTERPGAVYLAAALAAHSQKGIPAFSIYGHDVQDADDTTIPADVEEKLLRFARAGLAVASMKGKSYLSVGGVSMGIAGSIVDHNFFESWLGMKVQAVDMTELRRRIDQKIYDEVELEMALAWADKNFRYGEDQNAQHYKRDEEQSRAVLKESLLMAMCIRDMMQGNEKLAEKGLLEESLGYNAIAAGFQGQRHWTDQYPNGDTAEALLNSSFDWNGVREPFVVATENDSLNGVAMLMGHQLTGTAQVFADVRTYWSPDAVERVTGQPLTGLAEHGIIHLINSGSAALDGSCQQRDEEGKPTMKPHWEISQKEADACLAATEWCPAIHEYFRGGGYSSRFLTEGGVPFTMTRVNLIKGLGPVLQIAEGWSVELPKAMHDQLDARTNSTWPTTWFAPRLTGKGPFADVYSVMANWGANHGVLTIGHVGADFITLAAMLRIPVCMHNVEEGKIYRPSSWSAHGMDTEGQDYRACQNYGPLYKR
notes: also called RdFucI; Rd FucI
B2: RdFucI: L-fucose isomerase of Raoultella sp. KDH 14, amino acid sequence SEQ ID NO: 1, 591 amino acids (protein)
chain: B1 chain
modifications: Raoultella sp. KDH 14

Legend:
RdFucI [1] = assay type: biochemical, Raoultella sp. KDH 14
RdFucI [2] = test: Substrate specificity of RdFucI; assay type: biochemical, Raoultella sp. KDH 14; details: aldose and ketose substrates tested
Description: In general, sugar isomerases show reactivity for various sugars. As a result of testing with various aldoses (L-fucose, D-arabinose, D-altrose, D-galactose, D-mannose and D-glucose) and ketose substrates (L-fuculose, D-ribulose, D-psicose, D-tagatose and D-fructose), the highest activity was shown against L-fuculose (115.3 U/mg) and D-ribulose (127.3 U/mg), showing much higher activities compared to activities for the other tested aldose and ketose substrates.

[3] = pH effect on RdFucI activity for fuculose; assay type: biochemical, Raoultella sp. KDH 14
[4] = molecular target: the molecule itself; test: crystal structure, self-association of subunits
[5] = Temperature effect on RdFucI activity for fuculose; assay type: biochemical, Raoultella sp. KDH 14
Description: (80% or more of the maximum activity) (FIG. 5a).

[6] = Reversible reaction between L-fucose and L-fuculose by RdFucI; assay type: biochemical, Raoultella sp. KDH 14; details: 10 mM substrate, 20 mM sodium phosphate pH 7, 1.5 μg RdFucI, 30° C., 1 mM MnCl2
Procedure: In order to identify what kind of reaction RdFucI favored in a reaction between fucose and fuculose, a reversible reaction of the recombinant enzyme was investigated over time. For this purpose, 10 mM L-fucose (FIG. 4a) or L-fuculose (FIG. 4b) included in 20 mM sodium phosphate (pH7) was used as a substrate, and was each reacted with 1.5 μg of RdFucI at 30° C. in the presence of 1 mM MnCl2, and L-fucose was experimentally quantified. In contrast, L-fuculose was expressed as a calculated value.

[7] = effect of metal ion on RdFucI activity, fuculose as substrate, Control = 100

| Molecule | effect of metal ion on enzyme activity (in words) (RdFucI [1]; RdFucI) | Relative activity (%) (RdFucI [1]; [7]) | other results |
| --- | --- | --- | --- |
| [Cl-].[Cl-].[Co+2] [CoCl2] |  |  | Relative activity (%) (RdFucI [1]): 353 ± 83%; effect of metal ion on enzyme activity (in words) (RdFucI [1]): increase the enzyme activity |
| O=C(CO)[C@H](O)[C@H](O)CO [D-ribulose] |  |  | activity of RdFucI against substrate (RdFucI [2]): 127.3 U/mg |
| Tris-HCl [Tris-HCl buffer] |  |  | RdFucI activity in the buffer versus other buffer types at the same pH (in words) ([3]; pH 7, 8 and 9, 50 mM, 40° C.): much lower |
| [Cl][Fe]([Cl])[Cl] [FeCl3] | inhibit the enzyme activity | 74 ± 3 |  |
| [Cl][Cd][Cl] [CdCl2] | increase the enzyme activity | 183 ± 9 |  |
| [Cl][Cu][Cl] [CuCl2] | inhibit the enzyme activity | 58 ± 7 |  |
| O=S(=O)([O-])[O-].[Li+].[Li+] [LiSO4] |  | 101 ± 15 |  |
| O=C(O)CN(CCN(CC(=O)O)CC(=O)O)CC(=O)O [EDTA] |  |  | Relative activity (%) (RdFucI [1]): 77 ± 12% |
| [Cl-].[Cl-].[Zn+2] [ZnCl2] | increase the enzyme activity | 159 ± 4 |  |
| [Cl][Ni][Cl] [NiCl2] |  | 91 ± 13 |  |
| C[C@H](O)[C@@H](O)[C@@H](O)C(=O)CO [L-fuculose] |  |  | activity of RdFucI against substrate (RdFucI [2]): 115.3 U/mg |
| [Cl][Mn][Cl] [MnCl2] | increase the enzyme activity | 738 ± 70 | increase of enzyme activity in the presence of the metal ion (RdFucI [1]; RdFucI, fuculose as substrate): about 7 fold |
| [Cl-].[Cl-].[Mg+2] [MgCl2] | increase the enzyme activity | 533 ± 31 |  |
| [Ca+2].[Cl-].[Cl-] [CaCl2] | inhibit the enzyme activity | 64 ± 8 |  |
| [Cl-].[Cs+] [CsCl2] |  | 101 ± 16 |  |
| B1 |  |  | binding result [4]: binds |
| B2 |  |  | relative maximum activity at pH 6 to 11 ([3]; sodium acetate, sodium phosphate and glycine-NaOH buffers): ≥ 70%; relative activity, of the maximum activity, at 30, 40 and 50° C. ([5]; 10 mM substrate, 1.5 μg enzyme, pH 7): ≥ 80%; temperature of highest activity ([5]; 10 mM substrate, 1.5 μg enzyme, pH 7, 10 to 80° C.): 40 °C; enzyme activity out of the 30 to 50° C. range ([5]; L-fuculose as substrate): less than 50%; reaction rate of reverse reaction (L-fuculose to L-fucose) versus forward reaction [6]: about 5 fold |
